Test results as given in the NIST ThermoML archive (doi:10.1021/je030136n).

Conditions: Liquid, Pulse-echo method

CCCCCCC [heptane]
Conditions	speed of sound [m/s]
293.1 K, 111450 kPa	1674.3
293.15 K, 100 kPa	1151.7
293.16 K, 121580 kPa	1707.1
293.18 K, 30400 kPa	1341.5
293.19 K, 45590 kPa	1416.6
293.2 K, 15200 kPa	1256.3
293.2 K, 60790 kPa	1484.5
293.2 K, 75990 kPa	1546.5
293.2 K, 91190 kPa	1603.7
293.2 K, 101320 kPa	1639.7
298.11 K, 75990 kPa	1531.6
298.13 K, 111450 kPa	1660.5
298.14 K, 121580 kPa	1692.4
298.15 K, 91190 kPa	1589.4
298.16 K, 100 kPa	1129.9
298.16 K, 101320 kPa	1625.7
298.16 K, 111450 kPa	1660.4
298.18 K, 45590 kPa	1400.1
298.19 K, 60790 kPa	1468.7
303.06 K, 100 kPa	1108.9
303.07 K, 45590 kPa	1384.4
303.1 K, 101320 kPa	1612.6
303.1 K, 121580 kPa	1681.2
303.13 K, 30400 kPa	1307
303.15 K, 111450 kPa	1647.6
303.17 K, 15200 kPa	1218.6
303.17 K, 75990 kPa	1517.2
303.18 K, 60790 kPa	1453.7
303.18 K, 91190 kPa	1575.7
308.07 K, 30400 kPa	1290.3
308.07 K, 45590 kPa	1368.7
308.08 K, 100 kPa	1087.4
308.08 K, 15200 kPa	1200.4
308.11 K, 91190 kPa	1562.4
308.12 K, 60790 kPa	1439
308.12 K, 75990 kPa	1503.2
308.17 K, 121580 kPa	1668.6
308.21 K, 111450 kPa	1634.6
308.24 K, 101320 kPa	1599.1
313.1 K, 100 kPa	1066.1
313.1 K, 15200 kPa	1182
313.1 K, 75990 kPa	1489.2
313.12 K, 30400 kPa	1273.3
313.12 K, 45590 kPa	1353
313.12 K, 60790 kPa	1424.3
313.13 K, 91190 kPa	1549
313.13 K, 121580 kPa	1656.4
313.2 K, 111450 kPa	1622
313.21 K, 101320 kPa	1586.2
318.09 K, 75990 kPa	1475.5
318.15 K, 91190 kPa	1535.7
318.17 K, 45590 kPa	1337.4
318.17 K, 60790 kPa	1409.6
318.17 K, 121580 kPa	1644.3
318.18 K, 100 kPa	1044.5
318.18 K, 15200 kPa	1163.4
318.18 K, 30400 kPa	1256.5
318.18 K, 101320 kPa	1573.6
318.18 K, 111450 kPa	1609.8
